# Test system: rat small-intestinal brush border membrane vesicles
# Assay: Inhibitory effect on 33PO4 uptake into rat small-intestinal brush border membrane vesicles (rapid filtration method)
# Format: biochemical
# Conditions: 33PO4 uptake into rat small-intestinal BBMVs; test compound 1 µM; reacted for 60 seconds
# Procedure, shortened: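 Uptake of ^33PO4 was measured by rapid filtration and liquid scintillation counting of filter-retained vesicles, after quenching with ice-cold 110 mM NaCl/1 mM KH2PO4/10 mM HEPES pH 7.5. Vesicles were brush border membranes from the upper small intestine of female Wistar rats aged 4–5 weeks.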
row,Compound,Rate of uptake inhibition (%) (1 µM)
1,"C[C@]12CCCN1N(Cc1cccc(F)c1F)C(=O)C(C(=O)Nc1ccc(C(F)(F)F)cc1-c1cc(C(F)(F)F)ncn1)=C2O [Example 21, (4aR)-1-[(2,3-Difluorophenyl)methyl]-4-hydroxy-4a-methyl-2-oxo-N-[4-(trifluoromethyl)-2-[6-(trifluoromethyl)pyrimidin-4-yl]phenyl]-6,7-dihydro-5H-pyrrolo[1,2-b]pyridazine-3-carboxamide]",61
2,CN1[C@@H](C(C)(C)C)C(O)=C(C(=O)Nc2ccc(Br)c(C(F)(F)F)n2)C(=O)N1Cc1cccc(F)c1F [Example 242],69
3,CN1N(Cc2ccc(NCCCN3CCOCC3)c(F)c2F)C(=O)C(C(=O)Nc2ccc(C(F)(F)F)cc2-c2cc(C(F)(F)F)ncn2)=C(O)C12CCCC2 [Example 446],31
4,CN1N(Cc2ccc(OCCN3[C@@H]4COC[C@H]3C4)c(F)c2F)C(=O)C(C(=O)Nc2ccc(C(F)(F)F)cc2-c2cc(C(F)(F)F)ncn2)=C(O)C12CCCC2 [Example 380],43
5,CCC1(CC)C(O)=C(C(=O)Nc2ccc(Cl)cc2-c2cc(C(F)(F)F)ncn2)C(=O)N(Cc2ccc(OCCN3CCOCC3)c(F)c2F)N1C [Example 292],44
6,CN1N(Cc2ccc(OCCN3CCN(CCOCCO)CC3)c(F)c2F)C(=O)C(C(=O)Nc2ccc(C(F)(F)F)cc2-c2cc(C(F)(F)F)ncn2)=C(O)C12CCCC2 [Example 378],35
7,C[C@]12CCCN1N(Cc1cccc(F)c1F)C(=O)C(C(=O)Nc1ccc(C(F)(F)F)cc1-c1ncnc(Cl)c1Cl)=C2O [Example 70],79
8,C[C@]12CCCN1N(Cc1ccc(F)c(Br)c1)C(=O)C(C(=O)Nc1ccc(C(F)(F)F)cc1-c1cc(C(F)(F)F)ncn1)=C2O [Example 184],79
9,C[C@]12CCCN1N(Cc1cc(F)cc(F)c1)C(=O)C(C(=O)Nc1ccc(C(F)(F)F)cc1-c1ccc(C(F)(F)F)nc1)=C2O [Example 171],78
10,C[C@]12CCCN1N(Cc1c(F)cccc1Cl)C(=O)C(C(=O)Nc1ccc(C(F)(F)F)cc1-c1ccc(C(F)(F)F)nc1)=C2O [Example 204],87
11,"CN1N(Cc2ccc(OC3COC3)c(F)c2F)C(=O)C(C(=O)Nc2ccc(C(F)(F)F)cc2-c2cc(C(F)(F)F)ncn2)=C(O)C12CCC2 [Example 403, 6-(2,3-Difluoro-4-(oxetan-3-yloxy)benzyl)-9-hydroxy-5-methyl-7-oxo-N-(4-(trifluoromethyl)-2-(6-(trifluoromethyl)pyrimidin-4-yl)phenyl)-5,6-diazaspiro[3.5]non-8-ene-8-carboxamide]",71
12,CN1N(Cc2ccc(OCCN3CCN(CCOCCO)CC3)c(F)c2F)C(=O)C(C(=O)Nc2ccc(C(F)(F)F)cc2-c2cc(C(F)(F)F)ncn2)=C(O)C12CCC2 [Example 361],20
13,C[C@]12CCCN1N(Cc1cc(F)cc(F)c1)C(=O)C(C(=O)Nc1ccc(C(F)(F)F)cc1-c1cc(C(F)(F)F)ncn1)=C2O [Example 213],79
14,CN1CCN(CCOc2ccc(CN3C(=O)C(C(=O)Nc4ccc(C(F)(F)F)cc4-c4cc(C(F)(F)F)ncn4)=C(O)C4(CCC4)N3C)c(F)c2F)CC1=O [Example 359],37
15,CC(C)[C@H]1C(O)=C(C(=O)Nc2ccc(C(F)(F)F)cc2-c2ccc(C(F)(F)F)nc2)C(=O)N(Cc2ccc(OCCN3CCOCC3)c(F)c2F)N1C [Example 280],50
16,C[C@]12CCCN1N(Cc1cccc(Cl)c1)C(=O)C(C(=O)Nc1ccc(C(F)(F)F)cc1-c1ccc(C(F)(F)F)nc1)=C2O [Example 169],73
17,CN1N(Cc2ccc(OCCN3[C@@H]4COC[C@H]3C4)c(F)c2F)C(=O)C(C(=O)Nc2ccc(C(F)(F)F)cc2-c2cc(C(F)(F)F)ncn2)=C(O)C12CCC2 [Example 339],66
18,CN1N(Cc2ccc(OCCCCCOCCCO)c(F)c2F)C(=O)C(C(=O)Nc2ccc(C(F)(F)F)cc2-c2cc(C(F)(F)F)ncn2)=C(O)C12CCCC2 [Example 400],36
19,"Cc1cc(NC(=O)C2=C(O)[C@H]3CCCCN3N(Cc3cccc(F)c3)C2=O)c(C(F)(F)F)o1 [Example 15, (4aR)-1-[(3-Fluorophenyl)methyl]-4-hydroxy-N-[5-methyl-2-(trifluoromethyl)furan-3-yl]-2-oxo-5,6,7,8-tetrahydro-4aH-pyrido[1,2-b]pyridazine-3-carboxamide]",42

row,Compound,Rate of uptake inhibition (%) (1 µM)
1,"CN1N(Cc2ccc(OCCNC(CC(=O)O)CC(=O)O)c(F)c2F)C(=O)C(C(=O)Nc2ccc(C(F)(F)F)cc2-c2cc(C(F)(F)F)ncn2)=C(O)C12CCCC2 [Example 382, 3-[2-[2.3-Difluoro-4-[[10-hydroxy-6-methyl-8-oxo-9-[[4-(trifluoromethyl)-2-[6-(trifluoromethyl)pyrimidin-4-yl]phenyl]carbamoyl]-6,7-diazaspiro[4.5]dee-9-en-7-yl)methyl]phenoxy]ethylamino]pentanedioate]",21
2,CCN(CCN(C)CCOC)c1ccc(CN2C(=O)C(C(=O)Nc3ccc(C(F)(F)F)cc3-c3cc(C(F)(F)F)ncn3)=C(O)C3(CCCC3)N2C)c(F)c1F [Example 443],28
3,"CN1N(Cc2ccc(OCCN3CCOCC3)c(F)c2F)C(=O)C(C(=O)Nc2ccc(C(F)(F)F)cc2-c2cc(C(F)(F)F)ncn2)=C(O)C1(C)C [Example 313, 2-[[2,3-Difluoro-4-(2-morpholin-4-ylethoxy)phenyl]methyl]-5-hydroxy-1,6,6-trimethyl-3-oxo-N-[4-(trifluoromethyl)-2-[6-(trifluoromethyl)pyrimidin-4-yl]phenyl]pyridazine-4-carboxamide]",65
4,CN1N(Cc2ccc(OCCN3C4CCC3COC4)c(F)c2F)C(=O)C(C(=O)Nc2ccc(C(F)(F)F)cc2-c2cc(C(F)(F)F)ncn2)=C(O)C12CCC2 [Example 340],63
5,"1-[(2,3-Difluorophenyl)methyl]-4a-ethyl-4-hydroxy-N-[5-methyl-2-(trifluoromethyl)furan-3-yl]-2-oxo-5,6,7,8-tetrahydropyrido[1,2-b]pyridazine-3-carboxamide [Example 19]",41
6,COC(=O)c1cccc(CN2C(=O)C(C(=O)Nc3ccc(C(F)(F)F)cc3-c3cc(C(F)(F)F)ncn3)=C(O)[C@@]3(C)CCCN23)c1 [Example 183],82
7,C[C@]12CCCN1N(Cc1cccc(OC(F)F)c1)C(=O)C(C(=O)Nc1ccc(C(F)(F)F)cc1-c1ccc(C(F)(F)F)nc1)=C2O [Example 167],73
8,CN1N(Cc2ccc(OCCN3CCOCC3(C)C)c(F)c2F)C(=O)C(C(=O)Nc2ccc(C(F)(F)F)cc2-c2cc(C(F)(F)F)ncn2)=C(O)C12CCC2 [Example 341],64
9,CN1N(Cc2ccc(OCCN3CCOC(C)(C)C3)c(F)c2F)C(=O)C(C(=O)Nc2ccc(C(F)(F)F)cc2-c2cc(C(F)(F)F)ncn2)=C(O)C12CCC2 [Example 342],43
10,"(4aR)-1-[(2,3-Difluorophenyl)methyl]-4a-ethyl-4-hydroxy- N-[5-methyl-2-(trifluoromethyl)furan-3-yl]-2-oxo-6,7-dihydro-5H-pyrrolo[1,2-b]pyridazine-3-carboxamide [Example 10]",37
11,CN1N(Cc2ccc(OCC(=O)N3CCOCC3)c(F)c2F)C(=O)C(C(=O)Nc2ccc(C(F)(F)F)cc2-c2cc(C(F)(F)F)ncn2)=C(O)C12CCC2 [Example 336],44
12,C[C@]12CCCN1N(Cc1cccc(F)c1F)C(=O)C(C(=O)Nc1ccc(Br)cn1)=C2O [Example 78],71
13,"CN(C[C@H](O)[C@@H](O)[C@H](O)[C@H](O)CO)C(=O)CCCOc1ccc(CN2C(=O)C(C(=O)Nc3ccc(C(F)(F)F)cc3-c3cc(C(F)(F)F)ncn3)=C(O)C3(CCCC3)N2C)c(F)c1F [Example 418, 7-[[2,3-Difluoro-4-[4-[methyl-[(2S,3R,4R,5R)-2,3,4,5,6-pentahydroxyhexyl]amino]-4-oxobutoxy]phenyl]methyl]-10-hydroxy-6-methyl-8-oxo-N-[4-(trifluoromethyl)-2-[6-(trifluoromethyl)pyrimidin-4-yl]phenyl]-6,7-diazaspiro[4.5]dec-9-ene-9-carboxamide]",29
14,Cc1c(-c2cc(C(F)(F)F)ccc2NC(=O)C2=C(O)[C@H](C(C)(C)C)N(C)N(Cc3ccc(OCCN4CCOCC4)c(F)c3F)C2=O)ncnc1C(F)(F)F [Example 278],69
15,C[C@]12CCCN1N(Cc1cccc(C#N)c1)C(=O)C(C(=O)Nc1ccc(C(F)(F)F)cc1-c1cc(C(F)(F)F)ncn1)=C2O [Example 179],83
16,Cc1c(-c2cc(C(F)(F)F)ccc2NC(=O)C2=C(O)C3(CCC3)N(C)N(Cc3ccc(OCCN4CCOCC4)c(F)c3F)C2=O)ncnc1C(F)(F)F [Example 285],62
17,C[C@]12CCCN1N(Cc1ccc(Cl)cc1)C(=O)C(C(=O)Nc1ccc(C(F)(F)F)cc1-c1cc(C(F)(F)F)ncn1)=C2O [Example 182],86
18,"COc1cccc(-c2cc(C(F)(F)F)ccc2NC(=O)C2=C(O)[C@@]3(C)CCCN3N(Cc3ccc(C#CCOCCCCO)c(F)c3F)C2=O)c1OC [Example 123, (4aR)-1-[[2,3-Difluoro-4-[3-(4-hydroxybutoxy)prop-1-ynil]phenyl]methyl)-N-[2-(2.3-dimethoxyphenyl)-4-(trifluoromethyl)phenyl]-4-hydroxy-4a-methyl-2-oxo-6,7-dihydro-5H-pyrrolo[1,2-b]pyridazine-3-carboxamide]",87
19,C[C@]12CCCN1N(Cc1ccc(OCCCCCO)c(F)c1F)C(=O)C(C(=O)Nc1ccc(C(F)(F)F)cc1-c1cc(C(F)(F)F)ncn1)=C2O [Example 162],73

# Reference: patent EP3928779A1 (Chugai Seiyaku Kabushiki Kaisha, priority 2014, dated 2016)
